Reference: patent publication US20010020100A1, “N-substituted-1, 2, 4-triazolone compounds for treatment of cardiovascular disorders” (G.D. Searle & Co., priority 1994, published 2001)
Several values for one entry are separate records, joined by “and”; a condition that tells them apart may be missing. Equal values may be shown once.

How the values were obtained:
[1] = target: smooth muscle angiotensin II receptor; assay: Assay A: Angiotensin II Binding Activity (125I-AII displacement, rat uterine membrane preparation); conditions: 50% displacement of specifically bound 125I-AII, rat uterine membranes, 25° C., 60 min
Protocol: Compounds of the invention were tested for ability to bind to the smooth muscle angiotensin II receptor using a rat uterine membrane preparation. […] Rat uterine membranes were prepared from fresh tissue. All procedures were carried out at 4° C. Uteri were stripped of fat and homogenized in phosphate-buffered saline at pH 7.4 containing 5 mM EDTA. The homogenate was centrifuged at 1500×g for 20 min., and the supernatant was recentrifuged at 100,000×g for 60 min. The pellet was resuspended in buffer consisting of 2 mM EDTA and 50 mM Tris-HCl (pH 7.5) to a final protein concentration of 4 mg/ml. […] The reaction was initiated by the addition of membrane protein and the mixture was incubated at 25° C. for 60 min. The incubation was terminated with ice-cold 50 mM Tris-HCl (pH 7.5) and the mixture was filtered to separate membrane-bound labelled peptide from the free ligand. The incubation tube and filter were washed with ice-cold buffer. Filters were assayed for radioactivity in a Micromedic gamma counter. Nonspecific binding was defined as binding in the presence of 10 μM of unlabelled AII. Specific binding was calculated as total binding minus nonspecific binding. […] Binding data were analyzed by a nonlinear least-squares curve fitting program.

[2] = tested on: rabbit aortic rings; assay: Assay B: In Vitro Vascular Smooth Muscle Response for AII (antagonist activity in aortic rings); assay type: cell-based; conditions: antagonist at 10^-5 M, AII concentration-response curves, Schild calculation; aorta rings from two rabbits, two values per cell
Protocol: Assay B: In Vitro Vascular Smooth Muscle-Resionse for AII
The compounds of the invention were tested for antagonist activity in rabbit aortic rings. Male New Zealand white rabbits (2-2.5 kg) were sacrificed using an overdose of pentobarbital and exsanguinated via the carotid arteries. The thoracic aorta was removed, cleaned of adherent fat and connective tissue and then cut into 3-mm ring segments. The endothelium was removed from the rings by gently sliding a rolled-up piece of filter paper into the vessel lumen. The rings were then mounted in a water-jacketed tissue bath, maintained at 37° C., between moveable and fixed ends of a stainless steel wire with the moveable end attached to an FT03 Grass transducer coupled to a Model 7D Grass Polygraph for recording isometric force responses. The bath was filled with 20 ml of oxygenated (95% oxygen/5% carbon dioxide) Krebs solution of the following composition (nM) : 130 NaCl, 15 NaHCO3, 15 KCl, 1.2 NaH2PO4, 1.2 MgSO4, 2.5 CaCl2, and 11.4 glucose. […] Angiotensin II concentration-response curves were then recorded (3×10^−10 to 1×10^−5 M). […] The effectiveness of the test compound was expressed in terms of pA2 values and were calculated according to H. O. Schild [Br. J. Pharmacol. Chemother., 2,189-206 (1947)]. […] Each test antagonist was evaluated in aorta rings from two rabbits.

[3] = tested on: AII pressor response; assay: Assay C: In Vivo Intraduodenal Pressor Assay Response for AII Antagonists; parameters: species or system Sprague-Dawley rats; conditions: 30 mg/kg i.d., average of two rats; for Assay C Inhibition: inhibition of AII pressor response, anesthetized ganglion-blocked rats; for Assay C Duration: time from peak percent inhibition to 50% of peak
Protocol: Assay C: In Vivo Intraduodenal Pressor Assay Response for AII Antagonists
Male Sprague-Dawley rats weighing 225-300 grams were anesthetized with Inactin (100 mg/kg, i.p.) and catheters were implanted into the trachea, femoral artery, femoral vein and duodenum. Arterial pressure was recorded from the femoral artery catheter on a Gould chart recorder (Gould, Cleveland, OH). The femoral vein catheter was used for injections of angiotensin II, mecamylamine and atropine. The tracheal catheter allows for airway patency, and the duodenal catheter was used for intraduodenal (i.d.) administration of test compounds. After surgery, the rats were allowed to equilibrate for 30 minutes. Mecamylamine (3 mg/kg, 0.3 ml/kg) and atropine (400 ug/kg, 0.3 ml/kg) were then given i.v. to produce ganglion blockade. These compounds were administered every 90 minutes throughout the test procedure. Angiotensin II was given in bolus does i.v. (30 ng/kg in saline with 0.5% bovine serum albumin, 0.1 ml/kg) every 10 minutes three times or until the increase in arterial pressure produced was within 3 mmHg for two consecutive AII injections. The last two AII injections were averaged and were taken as the control AII pressor response. Ten minutes after the final control AII injection, the test compound (dissolved in sodium bicarbonate) was administered i.d. at a dose of 30 mg/kg in a volume of 0.2 ml. Angiotensin II injections were then given 5, 10, 20, 30, 45, 60, 75, 90, and 120 minutes after administration of the test compound and response of arterial pressure was monitored. The response to AII was calculated as percent of the control response and then the percent inhibition is calculated as 100 minus the percent control response. Duration of action of a test compound was defined as the time from peak percent inhibition to 50% of peak. One compound at one dose was tested in each rat. Each test compound was tested in two rats and the values for the two rats were averaged.

Structure (SMILES)	IC50 [1]	Assay B PA2 [2]	Assay C Inhibition [3]	Assay C Duration [3]
CCCCc1nn(CCCC)c(=O)n1Cc1ccc(-c2ccccc2C(=O)O)cc1 [Example 1, 4′-[(1,3-dibutyl-4,5-dihydro-5-oxo-1H-1,2,4-triazol-4-yl)methyl] [1,1′-biphenyl]-2-carboxylic acid]	0.101 µM	7.3 and 6.7	93%	60 to 100 min
CCCCc1nn(CCCC)c(=O)n1Cc1ccc(-c2ccccc2-c2nnn[nH]2)cc1 [Example 2, 2,5-dibutyl-2,4-dihydro-4-[[2-(1H-tetrazol-5-yl)[1,1′-biphenyl]-4′-yl]methyl]-3H-1,2.4-triazol-3-one]	0.0049 µM	9.0 and 9.4	100%	>200 min
